The values below come from patent US9434719B2, “3-pyrimidin-4-yl-oxazolidin-2-ones as inhibitors of mutant IDH” (NOVARTIS AG, priority 2013, dated 2016).

Holding throughout (format): in vitro ADME
The nature of series [1]: Metabolic stability in liver microsomes, Method II, rat. The conditions noted are these: 1 μM test compound, NADPH + UDPGA. A general note: Liver microsomes are a subcellular fraction often used to study metabolism.
Protocol: The in vitro metabolic stability assay was performed in a 96-deep-well plate with incubation at 37° C. 10 mM DMSO stock solution of the test compound was diluted 1:20 in acetonitrile, followed by an additional 1:10 dilution in 100 mM potassium phosphate buffer (KPi) to yield a final reaction concentration of 1 μM. […] 290 μL of cofactor solution (1.7 mM NADPH, 1.7 mM UDPGA, 3.4 mM MgCl in 100 mM KPi) was added to 200 μL of microsomal protein for a final volume of 490 μL. The reaction was initiated by adding 10 μL of the 50 μM test solution to 490 μL of microsomal protein for a final volume 500 μL enzyme-compound mixture.
UPLC mobile phase A: 0.25% formic acid in 5% methanol; mobile phase B: 0.25% formic acid in 95% water.
The nature of series [2]: Metabolic stability in liver microsomes, Method II, human. The conditions noted are these: 1 μM test compound, NADPH + UDPGA. As for the experimental part: (§1) Determination of Metabolic Stability in Liver Microsomes—Method II
(§2) The in vitro metabolic stability assay was performed in a 96-deep-well plate with incubation at 37° C. 10 mM DMSO stock solution of the test compound was diluted 1:20 in acetonitrile, followed by an additional 1:10 dilution in 100 mM potassium phosphate buffer (KPi) to yield a final reaction concentration of 1 μM. Immediately prior to the start of the experiment, respective animal or human liver microsomes (male Sprague-dawley rat, male CD-1 mouse, or pooled human liver microsomes) were diluted in 100 mM KPi to 1.25 mg/mL liver microsomal protein. 290 μL of cofactor solution (1.7 mM NADPH, 1.7 mM UDPGA, 3.4 mM MgCl in 100 mM KPi) was added to 200 μL of microsomal protein for a final volume of 490 μL. The reaction was initiated by adding 10 μL of the 50 μM test solution to 490 μL of microsomal protein for a final volume 500 μL enzyme-compound mixture.
(§3) At 0, 5, 15 and 30 minute time points in the reaction, reaction aliquots (75 μL) were removed and the reactions were terminated by the addition of 50:50 acetonitrile/methanol solution (75 μL) containing a mass spectrometry internal standard (0.5 μM glyburide). The samples were centrifuged at 4000 RPM for 10 minutes. Supernatants (15 μL aliquots) were transferred to a new plate where each well contains 90 μL of deionized water. The supernatants solution were analyzed by UPLC/MS/MS for quantitation of parent remaining compound under multiple reactions monitoring mode (MRM) in positive mode. The percentage of compound remaining, relative to 0 minutes, was used to estimate in vitro elimination-rate constant (k) which was used to calculate in vitro metabolic clearance rates.
(§4) Analysis of the samples was performed on an ultra-performance liquid chromatography-tandem mass spectrometry (UPLC/MS/MS) system consisting of an AB Sciex Qtrap 5500 mass spectrometer, AB Sciex Turbo V ion source, Waters Acquity Sample Organizer, Waters Acquity Column manager, Waters Acquity Sample manager, and a Waters Acquity Binary Solvent Manager. Chromatographic separation of analyte and internal standard was achieved using a reverse phase C-18 column (50×2.1 mm, 1.7 μm, Acquity UPLC BEH C-18) with the following UPLC mobile phases and elution gradient: […]
(§5) UPLC mobile phase A: 0.25% formic acid in 5% methanol; mobile phase B: 0.25% formic acid in […].
(§6) The injection volume was 5 μL. Compounds were detected using Analyst 1.5.1 software which collects intensity data for all fragments related to the molecular weight of the test compound. After collection of the raw data, the software identifies and integrates the peak of the strongest intensity.
(§7) Each microsomal elimination rate, k, was based on a 4-point elimination curve tested in duplicates. LC-MS/MS raw data for a reaction plate was returned as integrated analyte peak areas for the test compound and internal standard used in the quench solution for the reaction to enable use of analyte:internal standard peak area ratios (PARs) for all data comparisons. The reaction time point (e.g. 0, 5, 15 and 30 minutes) was plotted versus the natural logarithm of percent test compound remaining relative to 0 minutes (based on relative PAR). The slope of this clearance plot, k, was used to calculate the in vitro half-life.
(§8) [formula] The intrinsic clearance value, CLint (expressed as μL/min/mg microsomal protein) calculation is shown below:
(§9) [formula] Where V=the incubation volume (mL) and M=the microsomal protein content in the incubation (mg)

Series [3] can be described thus: Metabolic stability in liver microsomes, Method II, mouse. The conditions noted are these: NADPH + UDPGA; for microsomal CLint: 1 μM test compound. Here is the method:
as §1, §2, §3, §4, §5, §6, §7, §8, §9

Structures can show the parent of a compound that is named as a salt.

In general, microsomal CLint refers to the rate of metabolic loss divided by the concentration.

`C[C@H](Nc1nccc(N2C(=O)OC[C@@H]2CF)n1)c1cn(-c2ccc(F)cc2)cn1` [471 as TFA salt]: the results for the microsomal CLint in series [1], in series [2] and in series [3] were below 7.7 µL/min/mg, below 7.7 µL/min/mg and 14.8 µL/min/mg, respectively.

On to `C[C@H](Nc1ncc(F)c(N2C(=O)OC[C@@H]2CF)n1)c1cn(-c2ccc(F)c(Cl)c2)cn1` [472 as TFA salt], for which the intrinsic metabolic clearance (microsomal CLint) in series [1] was 12 µL/min/mg; in series [2] it was below 7.7 µL/min/mg; in series [3], 45.6 µL/min/mg.

Take `C[C@H](Nc1nccc(N2C(=O)OC[C@@H]2CF)n1)c1cn(-c2ccc(F)c(F)c2)cn1` [474 as TFA salt]: the microsomal CLint in series [1] is 24.8 µL/min/mg; in series [2] it was below 7.7 µL/min/mg; in series [3] it was below 7.7 µL/min/mg.

On to `C[C@H](Nc1nccc(N2C(=O)OC[C@@H]2[C@H](C)F)n1)c1cn(-c2ccc(Cl)cc2F)cn1` [476 as TFA salt], for which the microsomal CLint in series [1] was 344 µL/min/mg; in series [2], 41.4 µL/min/mg; in series [3], 111 µL/min/mg.

For the compound `C[C@H](Nc1nccc(N2C(=O)OC[C@@H]2[C@H](C)F)n1)c1cn(-c2ccc(F)cc2F)cn1` [478 as TFA salt], the microsomal CLint worked out at 219 µL/min/mg in series [1], 10.9 µL/min/mg in series [2] and 55.3 µL/min/mg in series [3].

For `C[C@H](Nc1ncc(F)c(N2C(=O)OC[C@@H]2[C@H](C)F)n1)c1cn(-c2ccc(F)cc2F)cn1` [479 as TFA salt], the microsomal CLint in series [1] is 173 µL/min/mg; in series [2] it was 11.9 µL/min/mg; in series [3], 116 µL/min/mg.

On to `C[C@H](Nc1ncc(F)c(N2C(=O)OC[C@@H]2[C@H](C)F)n1)c1cn(-c2ccc(Cl)cc2F)cn1` [Example 477, (R)-3-(2-(((S)-1-(1-(4-chloro-2-fluorophenyl)-1H-imidazol-4-yl)ethyl)amino)-5-fluoropyrimidin-4-yl)-4-((S)-1-fluoroethyl)oxazolidin-2-one], for which the microsomal CLint at 1 μM in series [1] (male, Sprague-Dawley) is 438 µL/min/mg; in series [2] (pooled liver microsomes) it was 30.4 µL/min/mg; in series [3] (male, CD-1, 1 μM test compound) it was 167 µL/min/mg.
